In PubChem BioAssay AID2060626 (Molecular Pharmacology Branch, DTP, NCI, 2025):
Values joined by “and” are separate entries in the source; they are usually repeats but may differ in a detail not shown here. Identical values can stand only once. Each block holds one molecule with its values, some of them ahead of it.

Tested on: 168753-222-R-J1-PDC complex spheroid viability
Assay: Anticancer human tumor 168753-222-R-J1-PDC patient-derived bladder carcinoma cell line growth inhibition [CLK]
Details: for viability, T/C: stronger effect = lower value
In short: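 Patient-derived tumor cells grown as complex spheroids with HUVEC endothelial cells and mesenchymal stem cells, treated with drug combinations. Concentrations descend in half-log steps from near clinical Cmax, or from 10 microM if Cmax unknown.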

[1] = curve of first compound, second compound 0.0316 µM
[2] = curve of first compound, second compound 0.1 µM
[3] = curve of first compound, second compound 0.316 µM
[4] = curve of first compound, second compound 1 µM
[5] = curve of first compound, second compound 3.16 µM
[6] = curve of first compound, second compound 10 µM
[7] = second compound 0.0316 µM, first compound 0.0316 µM
[8] = second compound 0.0316 µM, first compound 0.1 µM
[9] = second compound 0.0316 µM, first compound 0.316 µM
[10] = second compound 0.0316 µM, first compound 1 µM
[11] = second compound 0.0316 µM, first compound 3.16 µM
[12] = second compound 0.0316 µM, first compound 10 µM
[13] = second compound 0.1 µM, first compound 0.0316 µM
[14] = second compound 0.1 µM, first compound 0.1 µM
[15] = second compound 0.1 µM, first compound 0.316 µM
[16] = second compound 0.1 µM, first compound 1 µM
[17] = second compound 0.1 µM, first compound 3.16 µM
[18] = second compound 0.1 µM, first compound 10 µM
[19] = second compound 0.316 µM, first compound 0.0316 µM
[20] = second compound 0.316 µM, first compound 0.1 µM
[21] = second compound 0.316 µM, first compound 0.316 µM
[22] = second compound 0.316 µM, first compound 1 µM
[23] = second compound 0.316 µM, first compound 3.16 µM
[24] = second compound 0.316 µM, first compound 10 µM
[25] = second compound 1 µM, first compound 0.0316 µM
[26] = second compound 1 µM, first compound 0.1 µM
[27] = second compound 1 µM, first compound 0.316 µM
[28] = second compound 1 µM, first compound 1 µM
[29] = second compound 1 µM, first compound 3.16 µM
[30] = second compound 1 µM, first compound 10 µM
[31] = second compound 3.16 µM, first compound 0.0316 µM
[32] = second compound 3.16 µM, first compound 0.1 µM
[33] = second compound 3.16 µM, first compound 0.316 µM
[34] = second compound 3.16 µM, first compound 1 µM
[35] = second compound 3.16 µM, first compound 3.16 µM
[36] = second compound 3.16 µM, first compound 10 µM
[37] = second compound 10 µM, first compound 0.0316 µM
[38] = second compound 10 µM, first compound 0.1 µM
[39] = second compound 10 µM, first compound 0.316 µM
[40] = second compound 10 µM, first compound 1 µM
[41] = second compound 10 µM, first compound 3.16 µM
[42] = second compound 10 µM, first compound 10 µM
[43] = second compound 0.0316 µM, first compound 0.00316 µM
[44] = second compound 0.0316 µM, first compound 0.01 µM
[45] = second compound 0.1 µM, first compound 0.00316 µM
[46] = second compound 0.1 µM, first compound 0.01 µM
[47] = second compound 0.316 µM, first compound 0.00316 µM
[48] = second compound 0.316 µM, first compound 0.01 µM
[49] = second compound 1 µM, first compound 0.00316 µM
[50] = second compound 1 µM, first compound 0.01 µM
[51] = second compound 3.16 µM, first compound 0.00316 µM
[52] = second compound 3.16 µM, first compound 0.01 µM
[53] = second compound 10 µM, first compound 0.00316 µM
[54] = second compound 10 µM, first compound 0.01 µM
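Note: viability measured after seven days of drug exposure.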
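Throughout, for viability, T/C: luminescence signal used as surrogate for viable cell amount; 100% = DMSO vehicle control wells.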

- IC50 (curve of compound): 3550 nM and 6370 nM
Compound: CC1(C)CCC(CN2CCN(c3ccc(C(=O)NS(=O)(=O)c4ccc(NCC5CCOCC5)c([N+](=O)[O-])c4)c(Oc4cnc5[nH]ccc5c4)c3)CC2)=C(c2ccc(Cl)cc2)C1
- viability, T/C (compound 0.0316 µM): 87% and 96.7%
- viability, T/C (compound 0.1 µM): 97% and 94.3%
- viability, T/C (compound 0.316 µM): 74% and 113%
- viability, T/C (compound 1 µM): 112% and 102%
- viability, T/C (compound 3.16 µM): 54.4% and 93.3%
- viability, T/C (compound 10 µM): 10.7% and 22%

- IC50 (curve of compound): 88.9 nM and 161 nM
Compound: CC(Nc1ccc2c(c1)OCCn1cc(N3C(=O)OCC3C(F)F)nc1-2)C(N)=O (configuration not stated)
- viability, T/C (compound 0.0316 µM): 86.9% and 78.6%
- viability, T/C (compound 0.1 µM): 45.8% and 69.2%
- viability, T/C (compound 0.316 µM): 20.7% and 22.8%
- viability, T/C (compound 1 µM): 13.3% and 18.8%
- viability, T/C (compound 3.16 µM): 10.3% and 13.1%
- viability, T/C (compound 10 µM): 11% and 14.8%

Compound: COc1ccc([C@@H](O)c2cc(-c3ncnc4cc(N5CCOCC5)ccc34)c(F)cc2Cl)nn1 + CN1CCN(c2cc(C(=O)Nc3cc4cc(-c5cnn(C)c5)ccc4cn3)ccn2)CC1
- IC50 [1]: 361 nM
- IC50 [2]: 47.5 nM
- IC50 [3]: < 31.6 nM
- IC50 [4]: < 31.6 nM
- IC50 [5]: < 31.6 nM
- IC50 [6]: < 31.6 nM
- viability, T/C [7]: 95.5%
- viability, T/C [8]: 82.1%
- viability, T/C [9]: 55.6%
- viability, T/C [10]: 19.2%
- viability, T/C [11]: 11.7%
- viability, T/C [12]: 7.52%
- viability, T/C [13]: 63%
- viability, T/C [14]: 26.1%
- viability, T/C [15]: 13.6%
- viability, T/C [16]: 13.1%
- viability, T/C [17]: 10.1%
- viability, T/C [18]: 7.24%
- viability, T/C [19]: 9.76%
- viability, T/C [20]: 8.36%
- viability, T/C [21]: 8.98%
- viability, T/C [22]: 7.9%
- viability, T/C [23]: 7.78%
- viability, T/C [24]: 3.67%
- viability, T/C [25]: 0.16%
- viability, T/C [26]: 0.12%
- viability, T/C [27]: 0.13%
- viability, T/C [28]: 0.07%
- viability, T/C [29]: 0.79%
- viability, T/C [30]: 0.13%
- viability, T/C [31]: 0.05%
- viability, T/C [32]: 0.08%
- viability, T/C [33]: 0.15%
- viability, T/C [34]: 0.05%
- viability, T/C [35]: 0.09%
- viability, T/C [36]: 0.54%
- viability, T/C [37]: 0.04%
- viability, T/C [38]: 0.81%
- viability, T/C [39]: 1.23%
- viability, T/C [40]: 0.1%
- viability, T/C [41]: 0.4%
- viability, T/C [42]: 0.47%

- IC50 [1]: > 100 nM
- IC50 [2]: > 100 nM
- IC50 [3]: > 100 nM
- IC50 [4]: < 0.316 nM
- IC50 [5]: < 0.316 nM
- IC50 [6]: < 0.316 nM
Compound: Cn1ncnc1[C@H]1c2n[nH]c(=O)c3cc(F)cc(c23)N[C@@H]1c1ccc(F)cc1 + CNC(=O)c1ccc(Nc2nc(OC3CCCC3)c3c(-c4ccc5nc(C)oc5c4)c[nH]c3n2)c(OC)c1
- viability, T/C (second compound 0.0316 µM, first compound 0.000316 µM): 95%
- viability, T/C (second compound 0.0316 µM, first compound 0.001 µM): 116%
- viability, T/C [43]: 110%
- viability, T/C [44]: 113%
- viability, T/C [7]: 104%
- viability, T/C [8]: 108%
- viability, T/C (second compound 0.1 µM, first compound 0.000316 µM): 96.8%
- viability, T/C (second compound 0.1 µM, first compound 0.001 µM): 93.6%
- viability, T/C [45]: 91.7%
- viability, T/C [46]: 103%
- viability, T/C [13]: 103%
- viability, T/C [14]: 92.6%
- viability, T/C (second compound 0.316 µM, first compound 0.000316 µM): 66.3%
- viability, T/C (second compound 0.316 µM, first compound 0.001 µM): 72%
- viability, T/C [47]: 77.2%
- viability, T/C [48]: 85.2%
- viability, T/C [19]: 82.1%
- viability, T/C [20]: 77.2%
- viability, T/C (second compound 1 µM, first compound 0.000316 µM): 33.9%
- viability, T/C (second compound 1 µM, first compound 0.001 µM): 32%
- viability, T/C [49]: 30.6%
- viability, T/C [50]: 28%
- viability, T/C [25]: 31.9%
- viability, T/C [26]: 42%
- viability, T/C (second compound 3.16 µM, first compound 0.000316 µM): 22.6%
- viability, T/C (second compound 3.16 µM, first compound 0.001 µM): 18.6%
- viability, T/C [51]: 19.6%
- viability, T/C [52]: 18.7%
- viability, T/C [31]: 19.8%
- viability, T/C [32]: 21.5%
- viability, T/C (second compound 10 µM, first compound 0.000316 µM): 15.8%
- viability, T/C (second compound 10 µM, first compound 0.001 µM): 17.3%
- viability, T/C [53]: 19.3%
- viability, T/C [54]: 16.8%
- viability, T/C [37]: 16.3%
- viability, T/C [38]: 20.5%

Compound: CCN1CCN(Cc2ccc(Nc3ncc(F)c(-c4cc(F)c5nc(C)n(C(C)C)c5c4)n3)nc2)CC1 + CN1CCN(c2cc(C(=O)Nc3cc4cc(-c5cnn(C)c5)ccc4cn3)ccn2)CC1
- IC50 [1]: 8.23 nM
- IC50 [2]: 7.04 nM
- IC50 [3]: < 3.16 nM
- IC50 [4]: < 3.16 nM
- IC50 [5]: < 3.16 nM
- IC50 [6]: < 3.16 nM
- viability, T/C [43]: 76.3%
- viability, T/C [44]: 44.8%
- viability, T/C [7]: 29.6%
- viability, T/C [8]: 36.7%
- viability, T/C [9]: 22.4%
- viability, T/C [10]: 26.2%
- viability, T/C [45]: 76.5%
- viability, T/C [46]: 38.7%
- viability, T/C [13]: 20.5%
- viability, T/C [14]: 19.9%
- viability, T/C [15]: 17.4%
- viability, T/C [16]: 12.6%
- viability, T/C [47]: 11.4%
- viability, T/C [48]: 9.45%
- viability, T/C [19]: 8.81%
- viability, T/C [20]: 8.47%
- viability, T/C [21]: 10.7%
- viability, T/C [22]: 12.1%
- viability, T/C [49]: 0.18%
- viability, T/C [50]: 0.21%
- viability, T/C [25]: 1.13%
- viability, T/C [26]: 0.13%
- viability, T/C [27]: 1.24%
- viability, T/C [28]: 0.34%
- viability, T/C [51]: 0.09%
- viability, T/C [52]: 0.13%
- viability, T/C [31]: 0.44%
- viability, T/C [32]: 0.08%
- viability, T/C [33]: 1.18%
- viability, T/C [34]: 0.99%
- viability, T/C [53]: 0.11%
- viability, T/C [54]: 0.29%
- viability, T/C [37]: 0.24%
- viability, T/C [38]: 0.13%
- viability, T/C [39]: 1.1%
- viability, T/C [40]: 1.36%

Compound: C=CC(=O)N1CCN(c2nc(=O)n(-c3c(C)ccnc3C(C)C)c3nc(-c4c(O)cccc4F)c(F)cc23)C(C)C1 (configuration not stated) + CN1CCN(c2cc(C(=O)Nc3cc4cc(-c5cnn(C)c5)ccc4cn3)ccn2)CC1
- IC50 [1]: > 10000 nM
- IC50 [2]: 3770 nM
- IC50 [3]: < 31.6 nM
- IC50 [4]: < 31.6 nM
- IC50 [5]: < 31.6 nM
- IC50 [6]: < 31.6 nM
- viability, T/C [7]: 96.6%
- viability, T/C [8]: 107%
- viability, T/C [9]: 111%
- viability, T/C [10]: 133%
- viability, T/C [11]: 82.8%
- viability, T/C [12]: 100%
- viability, T/C [13]: 79.4%
- viability, T/C [14]: 84.5%
- viability, T/C [15]: 55.5%
- viability, T/C [16]: 75.3%
- viability, T/C [17]: 52.5%
- viability, T/C [18]: 32.1%
- viability, T/C [19]: 16.2%
- viability, T/C [20]: 13.4%
- viability, T/C [21]: 14.2%
- viability, T/C [22]: 13.8%
- viability, T/C [23]: 12.8%
- viability, T/C [24]: 15.2%
- viability, T/C [25]: 0.29%
- viability, T/C [26]: 0.48%
- viability, T/C [27]: 1.79%
- viability, T/C [28]: 0.27%
- viability, T/C [29]: 0.3%
- viability, T/C [30]: 0.2%
- viability, T/C [31]: 1.43%
- viability, T/C [32]: 0.16%
- viability, T/C [33]: 0.55%
- viability, T/C [34]: 0.11%
- viability, T/C [35]: 1.89%
- viability, T/C [36]: 0.22%
- viability, T/C [37]: 0.21%
- viability, T/C [38]: 0.2%
- viability, T/C [39]: 0.6%
- viability, T/C [40]: 0.18%
- viability, T/C [41]: 0.4%
- viability, T/C [42]: 0.57%
